# What was measured:
# CNS cell lines = assay: Human Tumor Cell Panel Assay in vitro, CNS panel; assay type: cell-based; parameters: key: Most sensitive cell panes are marked with ✓
# Description: (§1) The tubulin activities, breast cancer cell line activities, and the cell panels most sensitive to selected analogs are shown in Tables 3 and 4.
# tubulin [1] = assay: tubulin activities of 2-ME analogs (Table 3); assay type: biochemical
# [2] = system: Ovarian cell lines (especially OVCAR-3); assay: Human Tumor Cell Panel Assay in vitro, ovarian panel; assay type: cell-based; parameters: key: Most sensitive cell panes are marked with ✓
# Description: as §1
# Renal cell lines = assay: Human Tumor Cell Panel Assay in vitro, renal panel; assay type: cell-based; parameters: key: Most sensitive cell panes are marked with ✓
# Description: as §1
# Melanoma cell lines = assay: Human Tumor Cell Panel Assay in vitro, melanoma panel; assay type: cell-based; parameters: key: Most sensitive cell panes are marked with ✓
# Description: as §1
# [3] = system: 8 human breast cancer cell lines; assay: human tumor cell panel assay in vitro, breast panel; assay type: cell-based; parameters: key to Most Sensitive Cell Lines in Human Tumor Cell Panel Assay: Breast: Most sensitive cell panes are marked with ✓; conditions: for Most Sensitive Cell Lines in Human Tumor Cell Panel Assay: Breast: 8 cell lines, only MCF-7 and T-47D express estrogen and progesterone receptors; for Tumor Panel: Average log IC50(Molar) against 8 human breast cancer cell lines / IC50: cell panel assay in vitro, two values per cell separated by /; for IC50: Homo sapiens, read-out: Tumor Panel: Average log IC50(Molar) against 8 human breast cancer cell lines (converted)
# Description: as §1
# [4] = system: MDA-MB-435 estrogen receptor-negative human breast carcinoma cells; assay: In Vivo Tumor Growth Inhibition; parameters: species or system SCID mice
# Experimental: To determine the antitumor activity of 2-ME and derivatives, SCID mice were s.c. inoculated with 10^6 MDA-MB-435 estrogen receptor-negative human breast carcinoma cells. Treatment was initiated on day 12 when tumor volumes reached 75-100 mm3 in volume. Drugs were suspended in 0.5 g/100 ml of carboxymethylcellulose with sterile glass beads, vortexed for 5 minutes, and administered p.o. in a volume of 0.1 ml. Control mice received 0.1 ml of carboxymethylcellulose p.o. Serial caliper measurements of perpendicular diameters were used to calculate tumor volume using the following: (shortest diameter)^2×(longest diameter)×0.52. T/C was calculated as the volume of treated tumors over the volume of control tumors. A smaller number indicates a greater inhibition of tumor growth.
# tubulin [5] = assay: inhibition of tubulin polymerization in vitro (turbidity at 350 nm); assay type: biochemical; conditions: read-out: IC50 (concentration required to inhibit tubulin polymerization by 50%); mean ± S.D.; method of Example 1
# Experimental: Anti-mitotic activity can be evaluated by testing the ability of an estradiol derivative to inhibit tubulin polymerization and microtubule assembly in vitro. Microtubule assembly is followed in a Gilford recording spectrophotometer (model 250 or 2400S) equipped with electronic temperature controllers. A reaction mixture (all concentrations refer to a final reaction volume of […]) contains 1.0 M monosodium glutamate (ph 6.6), 1. omg/ml (10 μM) tubulin, 1.0 mM MgCl2, 4% (v/v) dimethylsulfoxide and 20-75μM of a composition to be tested. The 0.24 ml reaction mixtures are incubated for 15 min. at 37° C. and then chilled on ice. After addition of 10p1 2.5mM GTP, the reaction mixture is transferred to a cuvette at 0° C., and a baseline established. At time zero, the temperature controller of the spectrophotometer is set at 37° C. Microtubule assembly is evaluated by increased turbity at 350 nm.
# A. Each reaction mixture (all concentrations refer to the final reaction volume of 0.25 ml) contained 1.0 M monosodium glutamate (pH 6.6), 1.0 mg/ml (10 μM) tubulin, 1.0 mM MgCl2, 4% (v/v) dimethylsulfoxide, and either 0 (curve 1), 20μM (curve 2), 40 μM (curve 3), or 75 μM (curve 4) 2-methoxyestradiol. The 0.24 ml reaction mixtures were incubated for 15 min. at 37° C and chilled on ice. After addition of 10 μl of 2.5 mM GTP the reaction mixtures were transferred to cuvettes held at 0° C., and baselines were established. At time zero the temperature controller was set at 37° C. At the times indicated by the vertical dashed lines the temperature controller was set at the indicated temperatures.
# B. Each reaction mixture contained 0.8 M monosodium glutamate (pH 6.6), 1.2 mg/ml (12 μM) tubulin, 4% (v/v) dimethylsulfoxide, and either 0 (curve 1), 1.0 FM (curve 2), 2.0 ,M (curve 3), 3.0 μM (curve 4), or 4.0 μM (curve 5) 2-methoxyestradiol. The 0.24 ml reaction mixtures were incubated for 15 min. at 26° C. and chilled on ice. After addition of 10μl of 10 mM GTP the reaction mixtures were transferred to cuvettes held at 0° C., and baselines were established. At time zero the temperature controller was set at 26° C. At the time indicated by vertical dashed line the temperature controller was set at 0° C.
# The method is given in Example 1.
# S.D., standard deviation.
# [6] = system: corneal neovascularization; assay: Mouse Corneal Micropocket Assay; assay type: in vivo, mice; conditions: daily oral, 5 days
# Experimental: Five- to 7-week-old SCID female mice were obtained from Massachusetts General Hospital (Boston, Mass.), Immunocompetent 7-9-week-old female C57BL/6 mice were obtained from ARCH Technical Services, Children's Hospital (Boston, Mass.). All animal studies were conducted according to protocols approved by the Animal Ethics Committee of Children's Hospital. Animals were anesthetized in a methoxyflurane (Pittman-Moore, Mundelein, Ill.) chamber prior to all procedures and were observed until fully recovered. Animals were sacrificed by a lethal dose of methoxyflurane.
# Mouse Corneal Micropocket Assay To study the effect of microtubule inhibitors on angiogenesis in vivo, a model of angiogenesis in the mouse cornea was used in […] mice as described previously (Kenyon, B. B., Voest, E. E., Chen, C. C., Folkman, J., and D'Amato, R. J. A model of angiogenesis in the mouse cornea. Invest. Ophthalmol. & Visual Sci., 76: 1625-1632, 1996). In brief, after animals were anesthetized, corneal micropockets were created in both eyes with a modified von Graefe cataract knife. Into each pocket, a 0.4 mm ×0.4 mm×0.2 mm sucrose aluminum sulfate (Bukh Meditee, Copenhagen, Denmark) pellet coated with hydron polymer type NCC (IHN Sciences, New Brunswick, N.J.) containing 80 ng of bFGF or 160 ng of human recombinant […] (gift from Reprogenesis, Cambridge, Mass.) was implanted 1.0-1.2 mm from the limbal vessels (bFGF experiments) or 0.5-0.7 mm from the limbus (VEGF experiments). Erythromycin ointment (E. Fougera, Melville, N.Y.) was applied to each operated eye. The sucralfate acts to stabilize the growth factor and to slow its release from the hydron. Before testing each drug in this assay, we found the maximal dose that could be administered daily for 5 consecutive days without producing signs of toxicity (i.e., no hair loss, diarrhea, infection, lethargy, or weight loss). The treated groups received daily oral administration for 5 consecutive days of the stated dosage of 2-ME or a derivative thereof suspended in 0.5 g/100 ml of carboxymethylcellulose.
# Treatment was started on the day of pellet implantation. […] For this purpose, the eyes of the mice were examined by slit-lamp biomicroscopy. Area of corneal neovascularization was calculated using a modified formula for a half-ellipse: Area (mm^2)=[π×clock hours×length (mm)×0.2 mm]. This formula provides the most accurate approximation of the area of neovascularization that grows toward the pellet. (Kenyon, B. B., Voest, E. E., Chen, C. C., Folkman, J., and D'Amato, R. J. A model of angiogenesis in the mouse cornea. Invest. Ophthalmol. & Visual Sci., 76: 1625-1632, 1996).
# [7] = 150 mg/kg p.o., duration not stated
Structure (SMILES),Most Sensitive Cell Lines in Human Tumor Cell Panel Assay: CNS (CNS cell lines),IC50 (tubulin [1]),Most Sensitive Cell Lines in Human Tumor Cell Panel Assay: Ovarian [2],Most Sensitive Cell Lines in Human Tumor Cell Panel Assay: Breast [3],IC50 (tubulin [5]),also measured
CCOc1cc2c(cc1O)C(=O)CC1C2CCC2(C)C(O)CCC12 (stereo not drawn) [NSC 679431],✓,4.8 µM,✓,✓,–,"Most Sensitive Cell Lines in Human Tumor Cell Panel Assay: Renal (Renal cell lines): ✓; Most Sensitive Cell Lines in Human Tumor Cell Panel Assay: Melanoma (Melanoma cell lines): ✓; T/C (volume of treated tumors over volume of control tumors) [4, 7]: 0.9"
C[C@]12CC[C@@H]3c4ccc(O)cc4CC[C@H]3[C@@H]1C[C@@H](O)[C@@H]2O [Estriol],–,–,–,–,> 40 µM,–
COc1c(O)ccc2c1CCC1C2CCC2(C)C(O)CCC12 (stereo not drawn) [4-Methoxyestradiol],–,–,–,–,> 40 µM,–
COc1ccc2c(c1OC)CCC1C2CCC2(C)C(O)CCC12 (stereo not drawn) [4-Methoxyestradiol-3-0-methyl ether],–,–,–,–,> 40 µM,–
C[C@]12CC[C@@H]3c4cc(OCC(F)(F)F)c(O)cc4C(=O)C[C@H]3[C@@H]1CC[C@@H]2O [NSC 681684],–,6 µM,–,–,–,inhibition in corneal pocket assay ([6]; 225 mg/kg): 36%; Tumor Panel: Average log IC50(Molar) against 8 human breast cancer cell lines [3]: −5.06 log Molar
CCOc1cc2c(cc1O)C(O)C[C@@H]1[C@@H]2CC[C@]2(C)[C@@H](O)CC[C@@H]12 (stereo partly drawn) [NSC 683688],✓,–,✓,✓,–,Most Sensitive Cell Lines in Human Tumor Cell Panel Assay: Renal (Renal cell lines): ✓; Most Sensitive Cell Lines in Human Tumor Cell Panel Assay: Melanoma (Melanoma cell lines): ✓; Tumor Panel: Average log IC50(Molar) against 8 human breast cancer cell lines [3]: −6.3 log Molar
CCOc1cc2c(cc1O)CCC1C2CCC2(C)C(O)CCC12 (stereo not drawn) [NSC 671043],✓,–,✓,✓,–,"IC50 [3]: 0.0316 µM; Tumor Panel: Average log IC50(Molar) against 8 human breast cancer cell lines [3]: −7.7 log Molar; T/C (volume of treated tumors over volume of control tumors) [4, 7]: 0.9"
CC12CCC3c4cc(OCC(F)(F)F)c(O)cc4CCC3C1CCC2O (stereo not drawn) [NSC 678473],–,1.7 µM,–,–,–,IC50 [3]: 0.794 µM; Tumor Panel: Average log IC50(Molar) against 8 human breast cancer cell lines [3]: −5.8 log Molar
COc1cc2c(cc1OC)C1CCC3(C)C(O)CCC3C1CC2 (stereo not drawn) [2-Methoxyestradiol-3-0-methyl ether],–,–,–,–,> 40 µM,–
CC=Cc1cc2c(cc1O)CCC1C2CCC2(C)C(O)CCC12 (stereo not drawn) [NSC 667047],✓,1.2 ± 0.1 µM,✓,✓,–,Most Sensitive Cell Lines in Human Tumor Cell Panel Assay: Renal (Renal cell lines): ✓; Most Sensitive Cell Lines in Human Tumor Cell Panel Assay: Melanoma (Melanoma cell lines): ✓; IC50 [3]: 0.1 µM; Tumor Panel: Average log IC50(Molar) against 8 human breast cancer cell lines [3]: −6.9 log Molar; T/C (volume of treated tumors over volume of control tumors) ([4]; 29 days at 75 mg/kg p.o.): 0.40
C#CC1(O)CCC2C3CCc4cc(O)c(OC)cc4C3CCC21C (stereo not drawn) [2-Methoxy-17-ethynylestradiol],–,–,–,–,> 40 µM,–
CC#Cc1cc2c(cc1O)CCC1C2CCC2(C)C(O)CCC12 (stereo not drawn) [NSC 682429],✓,2.2 µM,✓,✓,–,"inhibition in corneal pocket assay ([6]; 300 mg/kg): 34%; T/C (volume of treated tumors over volume of control tumors) ([4]; 44 days at 225 mg/kg p.o.): 0.25; tumor growth inhibition, comparison in words (FIG. 4) ([4]; FIG. 4): most effective tumor inhibiting compound tested"
COc1cc2c(cc1O)CCC1C2CCC2(C)C(O)C(O)CC12 (stereo not drawn) [2-Methoxyestriol],–,–,–,–,> 40 µM,–
CC12CCC3c4cc(F)c(O)cc4CCC3C1CCC2O (stereo not drawn) [2-Fluoroestradiol],–,–,–,–,27 ± 6 µM,–
C=Cc1cc2c(cc1O)CCC1C2CCC2(C)C(O)CCC12 (stereo not drawn) [NSC 667049],✓,5.2 ± 1 µM,✓,✓,–,Most Sensitive Cell Lines in Human Tumor Cell Panel Assay: Renal (Renal cell lines): ✓; Most Sensitive Cell Lines in Human Tumor Cell Panel Assay: Melanoma (Melanoma cell lines): ✓; IC50 [3]: 2.51 µM
CC(=O)Nc1cc2c(cc1O)CCC1C2CCC2(C)C(O)CCC12 (stereo not drawn) [NSC 673651],–,–,–,–,–,Tubulin IC50 (tubulin [1]): weak; IC50 [3]: 30.9 µM
COc1ccc(CCc2cc(OC)c(OC)c(OC)c2)cc1O [Dihydrocombretastatin A-4],–,–,–,–,0.63 ± 0.03 µM,–
COc1ccc2c(c1)CCC1C2CCC2(C)C(O)CCC12 (stereo not drawn) [Estradiol-3-0-methyl ether],–,–,–,–,> 40 µM,–
CC12CCC3c4cc(Br)c(O)cc4CCC3C1CCC2O (stereo not drawn) [2-Bromoestradiol],–,–,–,–,4.5 ± 0.6 µM,–

# From patent US20020002294A1, “Estrogenic compounds as antiangiogenic agents” (priority 1997, published 2002)
